Data as given in PubChem BioAssay (NCI).
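Where inhibition never reached the appropriate level, the endpoint shown equals the highest concentration tested. Otherwise, values were interpolated linearly from a five-concentration, 48-hour dose response in 96-well plates. The concentration for full growth arrest is given as TGI.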

How the values were obtained:
Assay in all cases: growth of human tumour cells (NCI), 48 h
NCI-H460 lung = system: NCI-H460 lung
RPMI-8226 leukemia = system: RPMI-8226 leukemia
OVCAR-8 ovarian = system: OVCAR-8 ovarian
NCI-H226 lung = system: NCI-H226 lung
DU-145 prostate = system: DU-145 prostate
NCI/ADR-RES ovarian = system: NCI/ADR-RES ovarian
HCT-116 colon = system: HCT-116 colon
M14 melanoma = system: M14 melanoma
U251 CNS = system: U251 CNS
OVCAR-3 ovarian = system: OVCAR-3 ovarian

Row | SMILES | TGI (NCI-H460 lung) [µM] | TGI (RPMI-8226 leukemia) [µM] | TGI (OVCAR-8 ovarian) [µM] | TGI (NCI-H226 lung) [µM] | TGI (DU-145 prostate) [µM] | TGI (NCI/ADR-RES ovarian) [µM] | TGI (HCT-116 colon) [µM] | TGI (M14 melanoma) [µM] | TGI (U251 CNS) [µM] | TGI (OVCAR-3 ovarian) [µM]
1 | O=C1CSC(c2cccs2)N1c1nc2cc3sc(N4C(=O)CSC4c4cccs4)nc3cc2s1 (stereo not given) | > 50 | > 50 | > 50 | 26.8 | > 50 | > 50 | > 50 | > 50 | > 50 | > 50
2 | Nc1ccc2[nH]c(-c3cccc(Cl)c3)cc(=O)c2c1 | > 100 | – | > 100 | – | – | 12.4 | – | > 100 | 70.4 | –
3 | O=C1C=CC(=O)c2c(O)c(NCCc3ccc(O)cc3)c(Cl)c(O)c21 | > 10 | > 10 | > 10 | > 10 | > 10 | > 10 | > 10 | > 10 | > 10 | > 10
4 | CC(C)(C)C1CCC2(CC1)c1[nH]c3ccccc3c1C1(CCC(C(C)(C)C)CC1)c1[nH]c3ccccc3c12 (stereo not given) | > 100 | > 100 | > 100 | > 100 | – | – | > 100 | > 100 | > 100 | –
5 | CNC(=O)N(CCC#N)[C@H]1CCCC[C@@H]1N(C(=O)NC)c1ccccc1 | > 100 | > 100 | > 100 | > 100 | > 100 | > 100 | > 100 | > 100 | > 100 | > 100
6 | O=c1oc2cc(O)ccc2c(O)c1C(c1ccc(C(c2c(O)c3ccc(O)cc3oc2=O)c2c(O)c3ccc(O)cc3oc2=O)cc1)c1c(O)c2ccc(O)cc2oc1=O | > 100 | – | > 100 | > 100 | > 100 | > 100 | > 100 | > 100 | > 100 | > 100
7 | O=C(Cc1ccccc1)NN1C(=O)/C(=C\c2ccc([N+](=O)[O-])cc2)SC1=Nc1ccccc1 | > 100 | > 100 | > 100 | > 100 | > 100 | > 100 | > 100 | > 100 | > 100 | > 100
8 | COc1ccc(-c2c(C#N)c(N)nc3c2CCS(=O)(=O)c2ccccc2-3)cc1 | > 100 | – | > 100 | > 100 | > 100 | > 100 | > 100 | – | > 100 | –
9 | CCC(=O)Oc1c2ccsc2c(OC(=O)CC)c2ccsc12 | 3.87 | – | 1.4 | 4.09 | 0.679 | 0.832 | 1.79 | 0.305 | 1.65 | –
10 | O=c1c(-c2ccc(Cl)cc2)nnc2n(Cc3ccccc3)c3ccccc3n12 | > 100 | – | > 100 | > 100 | > 100 | > 100 | > 100 | > 100 | 72.7 | –
11 | CC1S/C(=N/c2nnc(-c3ccccc3)o2)NC1=O (stereo not given) | – | > 100 | > 100 | > 100 | > 100 | > 100 | 37.4 | 56.5 | > 100 | 69.5
12 | O=C1C=C(c2ccccc2)O/C1=C/C(=O)c1ccc(Cl)cc1 | 41.5 | 25.9 | 74.8 | – | > 100 | 50 | 30.6 | 40.3 | 29.1 | 31.9
13 | COc1ccc2c(c1)CN1C(=N2)CSC1c1ccccc1Cl (stereo not given) | 32.7 | 29.9 | 43.2 | 31.3 | – | 53.8 | 33.1 | 35.4 | 59.6 | –
14 | O=[N+]([O-])c1ccc(NC(=S)N=Nc2c(O)[nH]c3ccc(Br)cc23)cc1 | 21.2 | – | 20 | 38.1 | 24.2 | 6.13 | 18 | – | 21.9 | 21.8
15 | CCNC(=O)C1CCCN1C(=O)C(CCCN=C(N)N)NC(=O)C(CC(C)C)NC(=O)C(Cc1c[nH]c2ccccc12)NC(=O)C(Cc1ccc(O)cc1)NC(=O)C(CO)NC(=O)C(Cc1c[nH]c2ccccc12)NC(=O)C(Cc1cnc[nH]1)NC(=O)C1CCC(=O)N1 (stereo not given) | > 100 | > 100 | > 100 | > 100 | > 100 | > 100 | – | > 100 | > 100 | > 100
16 | Cc1cc2ncc3c(=O)n(NS(=O)(=O)c4ccc(N)cc4)ccc3n2n1 | > 100 | – | > 100 | > 100 | > 100 | – | > 100 | > 100 | > 100 | > 100
17 | CCN1CCC(O)(C(C(=O)O)c2ccccc2)CC1 (stereo not given) | > 100 | > 100 | > 100 | > 100 | > 100 | > 100 | – | > 100 | > 100 | > 100
18 | CN(C)S(=O)(=O)Nc1nnc(S(N)(=O)=O)s1 | > 100 | > 100 | – | > 100 | > 100 | > 100 | > 100 | > 100 | > 100 | > 100
19 | CCC(C)C(=O)OC1CC2(C)C(c3ccoc3)OC(=O)CC23OC2(C)OC34C(OC(=O)C(C)C)C3(O)C(OC(=O)C5(C)OC5C)C5(C)CC3(O)C(C)(C5CC(=O)OC)C14O2 (stereo not given) | > 100 | – | > 100 | > 100 | > 100 | > 100 | > 100 | > 100 | > 100 | –
20 | O=C(O)C(CS)N=c1c2ccccc2n(O)c2ccccc12 (stereo not given) | > 100 | > 100 | > 100 | > 100 | – | – | > 100 | > 100 | > 100 | > 100
21 | COC(=O)C1CC2(c3ccccc3)C(=O)c3ccccc3N2O1 (stereo not given) | > 100 | 57 | > 100 | > 100 | – | – | > 100 | > 100 | > 100 | > 100
22 | CN(C)CCn1c(=O)c2ccc(NCCCN(C)CCCNc3ccc4c(=O)n(CCN(C)C)c(=O)n5c6ccc([N+](=O)[O-])cc6c(=O)c3c45)c3c(=O)c4cc([N+](=O)[O-])ccc4n(c1=O)c23 | 0.12 | – | 0.431 | – | 0.39 | – | 0.118 | 0.753 | 0.124 | 1.31
23 | CC1(C)CNC(=O)C2(C=NC(C)(C)CNC(=O)C3(C=N1)CCCO3)CCCO2 (stereo not given) | – | > 10 | > 10 | – | > 10 | > 10 | > 10 | > 10 | > 10 | > 10

Row | SMILES | TGI (NCI-H460 lung) [µM] | TGI (RPMI-8226 leukemia) [µM] | TGI (OVCAR-8 ovarian) [µM] | TGI (NCI-H226 lung) [µM] | TGI (DU-145 prostate) [µM] | TGI (NCI/ADR-RES ovarian) [µM] | TGI (HCT-116 colon) [µM] | TGI (M14 melanoma) [µM] | TGI (U251 CNS) [µM] | TGI (OVCAR-3 ovarian) [µM]
24 | c1ccc2c3c(c(N4CCOCC4)nc2c1)CCCC3 | > 100 | – | > 100 | 68.1 | > 100 | > 100 | > 100 | > 100 | > 100 | > 100
25 | Cc1c2ncccc2cc2oc3ccccc3c(=O)c12 | > 100 | > 100 | > 100 | > 100 | > 100 | > 100 | > 100 | – | – | > 100
26 | CC1CC(=O)Nc2nc3ccccc3n21 (stereo not given) | > 100 | > 100 | > 100 | > 100 | – | > 100 | > 100 | > 100 | > 100 | > 100
27 | COC(=O)C1=Nc2c(C)nn(-c3ccccc3)c2N=C(c2ccc([N+](=O)[O-])cc2)C1 | – | > 10 | > 10 | – | > 10 | > 10 | > 10 | > 10 | > 10 | > 10
28 | O=C(N/N=C/c1cc(Br)cc(Br)c1[O-])c1ccccc1O.O=C(N/N=C/c1cc(Br)cc(Br)c1[O-])c1ccccc1O.[Fe+2] | 22.2 | – | 36.1 | 7.41 | – | – | 10.6 | 14.5 | 7.88 | 25.8
29 | COC1(OC)CCCCC2c3cccc(OC(C)=O)c3C21OC(C)=O (stereo not given) | – | > 100 | > 100 | > 100 | – | – | > 100 | > 100 | – | > 100
30 | O=C(CC1=NCCN1)c1ccccc1 | > 511 | > 750 | > 750 | 742 | – | > 750 | > 750 | – | > 750 | > 750
31 | COc1ccc(Nc2nc3c([nH]2)c(=O)n(C)c(=O)n3C)cc1 | – | > 10 | > 10 | – | > 10 | – | – | > 10 | – | –
32 | COc1ccc2c(c1)CC1=C(O2)c2ccc(OC)cc2OC1 | – | > 100 | 78.2 | > 100 | > 100 | > 100 | 41.8 | 37.3 | 39.9 | 36.4
33 | O=C(N/N=C/c1ccco1)c1cc(I)cc(I)c1O | – | 43 | > 50 | 39.7 | > 50 | > 50 | > 50 | > 50 | – | –
34 | Cn1c([O-])nc(-n2cc[n+](C)c2)cc1=O | > 100 | > 100 | – | > 100 | > 100 | > 100 | > 100 | > 100 | > 100 | > 100
35 | Cc1cc2[nH]c3c(C#N)c4c(c(=O)n3c2cc1C)CCCC4 | > 100 | – | > 100 | > 100 | > 100 | > 100 | > 100 | 27.6 | > 100 | > 100
36 | CCOC(=O)C(CC#Cc1ccc(C#CCC(NC(C)=O)C(=O)OCC)cc1)NC(C)=O (stereo not given) | > 100 | > 100 | > 100 | > 100 | > 100 | > 100 | > 100 | > 100 | – | > 100
37 | COc1c(Br)cc(CC(N)=O)c(O)c1Br | – | – | > 100 | > 100 | – | – | > 100 | – | > 100 | > 100
38 | COc1cc(/C=C\C(=O)O)ccc1OCc1ccccc1 | > 100 | > 100 | > 100 | – | > 100 | > 100 | > 100 | > 100 | > 100 | > 100
39 | C=C1CC(C)(c2ccc(Nc3nc4ccccc4c4occc34)cc2)OC1=O (stereo not given) | 51.5 | 4.47 | 11.4 | 1.94 | 28.4 | 20.1 | – | 4.73 | 38.9 | 12.9
40 | CC(=O)OC/C=C(/C=C/CNC1CCCCC1)OC(C)=O | 52.1 | 25.5 | – | 98.5 | 31.6 | 44.6 | 30.5 | 21.2 | 32.9 | 37.7
41 | O=[N+]([O-])c1ccc(-c2ccc(-c3csc(Nc4ccccn4)n3)o2)cc1 | – | > 100 | > 100 | – | – | – | > 100 | > 100 | 28.5 | > 100
42 | FC(F)(F)c1ccc2nc3n(c2c1)C(c1c(Cl)cccc1Cl)SC3 (stereo not given) | 35.6 | – | 46.8 | 35.4 | 32.3 | 25.7 | 22.4 | 30.7 | 32.6 | 29.4
43 | CC(=O)OCC(OC(C)=O)C1C[C@H]2O[C@@H]3[C@H](C[C@H]2O1)O[C@@]1(C[C@@H]3C)C[C@H](C)[C@@H]2O[C@]3(C[C@@H]2O1)C[C@H]1O[C@H]2[C@H](C)[C@H]4OC(=O)CC5CC[C@H]6OC7[C@H]8O[C@]9(CC[C@H]%10CC(O)(CO)[C@H](CC[C@H]%11C[C@@H](C)C(O)(CO)C(C[C@@H]4O[C@H]2C[C@H]1O3)O%11)O%10)CC8O[C@@H]7[C@@H](O9)[C@H]6O5 (stereo not given in full) | > 1 | – | > 0.271 | 0.142 | 0.0688 | > 0.205 | > 0.452 | > 1 | > 1 | > 1
44 | O=C(Cc1ccc([N+](=O)[O-])cc1)OCC#CCOC(=O)Cc1ccc([N+](=O)[O-])cc1 | > 10 | – | > 10 | – | – | > 10 | – | > 10 | > 10 | > 10
45 | Cc1nc(C)c(Cc2ccccc2)o1 | > 100 | – | > 100 | > 100 | > 100 | > 100 | > 100 | > 100 | > 100 | > 100
